# Data: US11339144B2 (Navitor Pharmaceuticals, Inc., priority 2017, dated 2022)
# Molecular target: HA-GST-Rheb (GTP-γ-S loaded) activating mTORC1 (Homo sapiens (Human), UniProt Q15382)
# Experiment: Rheb-dependent in vitro kinase assay (Rheb-IVK; LanthaScreen or Western readout)
# Type: biochemical
# Set-up: IVK IC50 (μM): scale not given here
# Conditions: Rheb-dependent in vitro kinase assay
# Chain of HA-GST-Rheb (GTP-γ-S loaded) activating mTORC1 (Q15382 1-181): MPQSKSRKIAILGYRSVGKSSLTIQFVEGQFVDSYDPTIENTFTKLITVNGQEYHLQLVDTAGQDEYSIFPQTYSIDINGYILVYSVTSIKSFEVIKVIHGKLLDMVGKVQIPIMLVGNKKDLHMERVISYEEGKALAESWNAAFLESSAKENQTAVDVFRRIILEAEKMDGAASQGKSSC
row,Compound,IVK IC50 (μM)
1,Cc1cc(Oc2ccccc2)cc2c1cc(CO)n2Cc1nc[nH]n1 [I-234],E/F

# Same assay, conditions: Rheb-dependent in vitro kinase assay; read-out: IVK IC50
row,Compound,IC50 [µM]
1,"OCc1nc2c(Oc3ccccc3Cl)cccc2n1Cc1nc[nH]n1 [I-407, (1-((1H-1,2,4-triazol-3-yl)methyl)-4-(2-chlorophenoxy)-1H-benzo[d]imidazol-2-yl)methanol]",> 100
2,CCCn1c(CO)nc2cc(Cl)c(OCc3ccccc3)cc21 [I-480],> 100
3,Clc1cc2cc[nH]c2cc1Oc1ccccc1 [I-258],> 100
4,OCc1nc2c(Oc3ccccc3)cc(Cl)cc2[nH]1 [I-404],> 100
5,CCn1c(CO)nc2cc(Cl)c(Oc3ccccc3)cc21 [I-456],> 100
6,CC(=O)OCCc1cc2c(Oc3ccccc3)c(Cl)ccc2[nH]1 [I-260],> 100
7,Cn1ccc2c(Sc3ccc(Cl)cc3)cc(Cl)cc21 [I-205],> 100
8,Clc1ccccc1Oc1cccc2[nH]ccc12 [I-285],> 100
9,N#CCc1nc2c(Oc3ccccc3)c(Cl)ccc2[nH]1 [I-441],> 100
10,"OCc1nc2c(OCC3CCCO3)c(Cl)c(Cl)cc2[nH]1 (stereo not drawn) [I-400, (5,6-dichloro-4-((tetrahydrofuran-2-yl)methoxy)-1H-benzo[d]imidazol-2-yl) methanol bis (2,2,2-trifluoroacetate)]",100 to 300
11,Cn1c(CO)cc2c(Oc3ccccc3Cl)cccc21 [I-272],> 100
12,CCn1c(CO)nc2cc(OCc3cccc(F)c3)c(Cl)cc21 [I-442],> 100
13,OCc1nc2cc(Cl)c(OCc3ccccc3)cc2n1CC(F)(F)F [I-458],> 100
14,Nc1ccnc(COc2c(Cl)c(Cl)cc3[nH]c(CO)nc23)n1 [I-420],> 100
15,"OCc1nc2c(OC[C@H]3CCCC[C@@H]3O)c(Cl)c(Cl)cc2[nH]1 (racemic) [I-383, (+,−)-trans-2-((5,6-dichloro-2-(hydroxymethyl)-1H-benzo[d]imidazol-4-yloxy)methyl)cyclohexanol]",10 to 100
16,Cn1c(CO)cc2c(OCc3ccccc3)cc(Cl)cc21 [I-292],> 100
17,Cn1ccc2c(NC3CCCNC3)cccc21 (stereo not drawn) [I-298],> 100
18,OCc1nc2cc(OCc3ccccc3)c(Cl)cc2n1Cc1ccccc1 [I-466],> 100
19,Cn1c(CO)cc2c(Oc3ccccc3F)cccc21 [I-274],> 100
20,CCn1c(CO)nc2cc(OCc3ccccc3F)c(Cl)cc21 [I-461],> 100
21,O=C(O)c1cccc(Cn2c(-c3ncco3)nc3cc(Cl)c(Cl)cc32)c1 [I-446],> 100
22,"OCc1cc2ccc(Oc3ccccc3)cc2[nH]1 [I-286, (6-Phenoxy-1H-indol-2-yl)methanol]",300 to 800
23,CCn1c(CO)nc2cc(Cl)c(OCc3ccccc3)cc21 [I-488],> 100

row,Compound,IC50 [µM]
1,Cn1c(CO)cc2c(Oc3ccccc3)c(Cl)ccc21 [I-289],> 100
2,N#Cc1cccc(Cn2c(-c3ncco3)nc3cc(Cl)c(Cl)cc32)c1 [I-463],> 100
3,OCc1nc2c(Br)cc(Oc3ccccc3)cc2n1Cc1nc[nH]n1 [I-406],> 100
4,OCc1cc2c(Br)cc(Oc3ccccc3)cc2n1Cc1nc[nH]n1 [I-225],> 100
5,OCc1nc2cc(Cl)c(Cl)c(OCC3CCCCN3)c2[nH]1 (stereo not drawn) [I-462],> 100
6,O=C(O)c1ccc(Sc2cccc3[nH]ccc23)cc1 [I-192],> 100
7,Nc1nonc1-c1nc2cc(Cl)c(Cl)cc2[nH]1 [I-477],> 100
8,CCn1c(CO)nc2cc(OCc3cccc(Cl)c3)c(Cl)cc21 [I-401],> 100
9,"Clc1ccc(Sc2cccc3c2ccn3Cc2nc[nH]n2)cc1 [I-196, 1-((1H-1,2,4-triazol-3-yl)methyl)-4-(4-chlorophenylthio)-1H-indole]",10 to 100
10,"OCc1cc2c(Oc3ccc(F)cc3)cccc2[nH]1 [I-278, (4-(4-fluorophenoxy)-1H-indol-2-yl)methanol]",300 to 800
11,Cn1ccc2c(Oc3ccc(F)cc3)cccc21 [I-265],> 100
12,"Clc1cc2nc(-c3ccncc3)[nH]c2c(Cl)c1Cl [I-353, 5,6,7-trichloro-2-(pyridin-4-yl)-1H-benzo[d]imidazole]",> 3
13,"Nc1nonc1-c1nc2cc(Cl)c(Cl)cc2n1Cc1ccc(-c2nn[nH]n2)cc1 [I-490, 4-(1-(4-(2H-tetrazol-5-yl)benzyl)-5,6-dichloro-1H-benzo[d]imidazol-2-yl)-1,2,5-oxadiazol-3-amine]",10 to 100
14,"O=C1CCCC(COc2c(Cl)c(Cl)cc3[nH]c(CO)nc23)N1 (stereo not drawn) [I-465, 6-((5,6-dichloro-2-(hydroxymethyl)-1H-benzo[d]imidazol-4-yloxy)methyl)piperidin-2-one]",100 to 300
15,Clc1cccc(Cl)c1Oc1cccc2[nH]ccc12 [I-228],> 100
16,OCc1cc2c(OCc3ccccc3)cc(Cl)cc2[nH]1 [I-294],> 100
17,COC(=O)c1ccc(Sc2cccc3[nH]ccc23)cc1 [I-188],> 100
18,OCc1nc2c(OCc3ccnc(Cl)n3)c(Cl)c(Cl)cc2[nH]1 [I-424],> 100
19,OCc1cc2ccc(Oc3ccccc3)cc2n1Cc1nc[nH]n1 [I-214],> 100
20,CCn1c(CO)nc2cc(OCCc3ccccc3)c(Cl)cc21 [I-430],> 100
21,Nc1ncccc1COc1c(Cl)c(Cl)cc2[nH]c(CO)nc12 [I-436],> 100
22,CCn1c(CO)nc2cc(OCc3ccccc3)c(Cl)cc21 [I-487],> 100
23,"OCc1nc2cc(OCc3ccccc3Cl)c(Cl)cc2[nH]1 [I-485, (5-chloro-6-(2-chlorobenzyloxy)-1H-benzo[d]imidazol-2-yl)methanol]",300 to 800

row,Compound,IC50 [µM]
1,OCc1cc2c(Oc3cccc(F)c3)cccc2[nH]1 [I-264],> 100
2,COc1cccc(Sc2cccc3[nH]ccc23)c1 [I-195],> 100
3,Nc1cccc(COc2c(Cl)c(Cl)cc3nc(CO)[nH]c23)n1 [I-464],> 100
4,NC(=O)Cn1c(CO)nc2cc(Cl)c(OCc3ccccc3)cc21 [I-476],> 100
5,CCn1c(CO)nc2cc(OCc3ccccc3Cl)c(Cl)cc21 [I-432],> 100
6,O=S(=O)(c1ccc(Cl)cc1)c1cccc2[nH]ccc12 [I-242],> 100
7,OCc1cc2cc(Sc3ccccc3)ccc2n1Cc1nc[nH]n1 [I-181],> 100
8,"Clc1ccc(Sc2cc(Cl)c3cc[nH]c3c2)cc1 [I-201, 4-chloro-6-(4-chlorophenylthio)-1H-indole]",10 to 100
9,Clc1ccc(Sc2cc(Sc3ccc(Cl)cc3)c3cc[nH]c3c2)cc1 [I-200],> 100
10,Nc1nonc1-c1nc2cc(Cl)c(Cl)cc2n1Cc1ccccc1 [I-491],> 100
11,Cn1c(CO)cc2c(Oc3ccccc3)cc(Cl)cc21 [I-281],> 100
12,Cn1c(CO)cc2c(Oc3ccccc3)cccc21 [I-280],> 100
13,COC(=O)c1cc(Sc2ccc(Cl)cc2)c2cc[nH]c2c1 [I-197],> 100
14,OCc1nc2cc(Cl)c(OCc3ccccc3)cc2n1Cc1nc[nH]n1 [I-402],> 100
15,Clc1ccc(Cc2cccc3[nH]ccc23)cc1 [I-179],> 100
16,CCn1c(CO)nc2cc(Cl)c(OCc3ccccc3Cl)cc21 [I-433],> 100
17,O=C(O)CCc1cc2c(Oc3ccccc3)c(Cl)ccc2[nH]1 [I-253],> 100
18,OCc1nc2c(OCc3cncnc3O)c(Cl)c(Cl)cc2[nH]1 [I-405],> 100
19,COC(=O)c1cc2c(Sc3ccc(Cl)cc3Cl)cc(Cl)cc2n1Cc1ccc(Br)cc1 [I-104],> 100
20,O=S(=O)(c1cccc(Cl)c1)c1cccc2[nH]ccc12 [I-240],> 100
21,O=C(O)c1ccc(Cn2c(-c3ncco3)nc3cc(Cl)c(Cl)cc32)cc1 [I-452],> 100
22,OCc1nc2c(OC[C@H]3CCCC[C@@H]3O)c(Cl)c(Cl)cc2n1Cc1nc[nH]n1 [I-392],> 100
23,"NC(=O)Cn1c(CO)nc2cc(OCc3ccccc3)c(Cl)cc21 [I-475, 2-(5-(benzyloxy)-6-chloro-2-(hydroxymethyl)-1H-benzo[d]imidazol-1-yl)acetamide]",100 to 300

row,Compound,IC50 [µM]
1,NC(=O)c1cccc(Cn2c(-c3ncco3)nc3cc(Cl)c(Cl)cc32)c1 [I-447],> 100
2,CCn1c(CO)nc2cc(Cl)c(OCc3ccccc3F)cc21 [I-454],> 100
3,N#CCc1nc2c(Oc3ccccc3)cccc2[nH]1 [I-471],> 100
4,c1cnc(Nc2cccc3[nH]ccc23)nc1 [I-189],> 100
5,"OCc1nc2c(Oc3ccccc3)c(Cl)ccc2[nH]1 [I-418, (5-chloro-4-phenoxy-1H-benzo[d]imidazol-2-yl)methanol]",100 to 300
6,N#Cc1ccccc1COc1c(Cl)c(Cl)cc2[nH]c(CO)nc12 [I-472],> 100
7,c1ccc(Oc2cccc3nc(-c4ncco4)n(Cc4ccc(-c5nn[nH]n5)cc4)c23)cc1 [I-422],> 100
8,"CCn1cnc2cc(OCc3ccccc3)c(Cl)cc21 [I-434, 5-(benzyloxy)-6-chloro-1-ethyl-1H-benzo[d]imidazole]",100 to 300
9,O=C(c1ccc(Cl)cc1)c1cccc2[nH]ccc12 [I-178],> 100
10,OCc1cc2c(C3CCCCC3)cc(Oc3ccccc3)cc2[nH]1 [I-223],> 100
11,N#Cc1cccc(COc2c(Cl)c(Cl)cc3[nH]c(CO)nc23)c1 [I-459],> 100
12,CCn1c(CO)nc2ccc(OCc3ccccc3)cc21 [I-417],> 100
13,"OCc1nc2c(Br)cc(Oc3ccccc3)cc2[nH]1 [I-428, (4-bromo-6-phenoxy-1H-benzo[d]imidazol-2-yl)methanol]",> 100
14,OCc1cc2c(OCCc3ccccc3)cc(Cl)cc2[nH]1 [I-279],> 100
15,O=C(O)c1cc(Sc2ccc(Cl)cc2)c2cc[nH]c2c1 [I-193],> 100
16,OCc1ccc(Sc2cccc3[nH]ccc23)cc1 [I-183],> 100
17,OCc1cc2c(Br)cc(Oc3ccccc3)cc2n1Cc1ccc(-c2nn[nH]n2)cc1 [I-221],> 100
18,Cn1ccc2c(Oc3cccc(Cl)c3)cccc21 [I-270],> 100
19,CCn1c(CO)nc2cc(Cl)c(OCc3ccc(Cl)cc3)cc21 [I-450],> 100
20,N#CCc1nc2cc(OCc3ccccc3)c(Cl)cc2[nH]1 [I-473],> 100
21,c1ccc(Sc2cccc3[nH]ccc23)nc1 [I-210],> 100
22,Clc1ccc(Sc2cccc3[nH]ccc23)cc1Cl [I-211],> 100
23,CCn1c(CO)nc2c(Cl)cc(OCc3ccccc3)cc21 [I-413],> 100
